# What was measured:
# Assay type in all cases: in vivo
# [1] = test system: barnyardgrass (Echinochloa crus-galli); test: Test C; set-up: key: 0 was no effect; 100 was complete control; conditions: PREEMERGENCE
# [2] = test system: cocklebur (Xanthium strumarium); test: Test C; conditions: PREEMERGENCE, Rate 140 g/ha
# [3] = test system: corn (Zea mays); test: Test C; set-up: key: 0 was no effect; 100 was complete control; conditions: PREEMERGENCE
# [4] = test system: hairy beggarticks (Bidens pilosa); test: Test C; set-up: key: 0 was no effect; 100 was complete control; conditions: PREEMERGENCE
# [5] = test system: ivyleaf morningglory (Ipomoea hederacea); test: Test C; conditions: PREEMERGENCE
# [6] = test system: johnsongrass (Sorghum halepense); test: Test C; conditions: PREEMERGENCE
# [7] = test system: ladysthumb smartweed (Polygonum persicaria); test: Test C; conditions: PREEMERGENCE
# [8] = test system: purple nutsedge (Cyperus rotundus); test: Test C; set-up: key: 0 was no effect; 100 was complete control; conditions: PREEMERGENCE
# [9] = test system: velvetleaf (Abutilon theophrasti); test: Test C; conditions: PREEMERGENCE
# [10] = test system: purple nutsedge (Cyperus rotundus); test: Test E pre-/postemergence/post directed; set-up: key: 0 is no injury; 100 is complete control
# Description: (§1) Seeds, tubers, or plant parts of alexandergrass (Brachiaria plantaginea), annual bluegrass (Poa annua), arrowleaf sida (Sida rhombifolia), barnyardgrass (Echinochloa crus-galli), bermudagrass (Cynodon dactylon), citrus (Citrus sinensis), common chickweed (Stellaria media), common purslane (Portulaca oleracea), common ragweed (Ambrosia elatior), common groundsel (Senecio vulgaris), dallisgrass (Paspalum dilatatum), goosegrass (Eleusine indica), green foxtail (Setaria viridis), guineagrass (Panicum maximum), itchgrass (Rottboellia exaltata), johnson grass (Sorghum halepense), kochia (Kochia scoparia), large crabgrass (Digitaria sanguinalis), leafy spurge (Euphorbia esula), pitted morningglory (Ipomoea lacunosa), purple nutsedge (Cyperus rotundus), quackgrass (Agropyron repens), Russian thistle (Salsola kali), sandbur (Cenchrus echinatus), sourgrass (Trichachne insularis), Spanishneedles (Bidens bipinnata), sugarcane (Saccharum officinarum), surinam grass (Brachiaria decumbens) and tall mallow (Malva sylvestris) were planted into greenhouse pots of flats containing greenhouse planting medium. Plant species were grown grown in separate pots or individual compartments. Preemergence applications were made within one day of planting the seed or plant part. Postemergence applications were applied when the plants were in the two to four leaf stage (three to twenty cm).
# (§2) Test chemicals were formulated in a non-phytotoxic solvent mixture which included a surfactant and applied preemergence to the soil surface, postemergence to the plants or as a post directed spray to plants and soil at the base of the target species. Untreated control plants and treated plants were placed in the greenhouse and visually evaluated for injury 13 to 21 days after herbicide application. Plant response ratings, summarized in Table E, are based on a 0 to 100 scale where 0 is no injury and 100 is complete control. A dash (−) response means no test result.
# [11] = test system: Spanishneedles (Bidens bipinnata); test: Test E pre-/postemergence/post directed
# Description: as §1, §2
# [12] = test system: alexandergrass (Brachiaria plantaginea); test: Test E pre-/postemergence/post directed
# Description: as §1, §2
# [13] = test system: bermudagrass (Cynodon dactylon); test: Test E pre-/postemergence/post directed
# Description: as §1, §2
# [14] = test system: common groundsel (Senecio vulgaris); test: Test E pre-/postemergence/post directed; conditions: POSTEMERGENCE, Rate 250 g/ha
# Description: as §1, §2
# [15] = test system: common ragweed (Ambrosia elatior); test: Test E pre-/postemergence/post directed
# Description: as §1, §2
# [16] = test system: itchgrass (Rottboellia exaltata); test: Test E pre-/postemergence/post directed
# Description: as §1, §2
# [17] = test system: johnson grass (Sorghum halepense); test: Test E pre-/postemergence/post directed
# Description: as §1, §2
# [18] = test system: large crabgrass (Digitaria sanguinalis); test: Test E pre-/postemergence/post directed
# Description: as §1, §2
# [19] = test system: pitted morningglory (Ipomoea lacunosa); test: Test E pre-/postemergence/post directed
# Description: as §1, §2
# [20] = test system: sandbur (Cenchrus echinatus); test: Test E pre-/postemergence/post directed
# Description: as §1, §2
compound,measurement,setting,value
COc1cnc(-c2ccc(C(F)(F)F)cc2)nc1Cc1cccc(C(F)(F)F)c1 [Compound 23],"Plant response rating, Barnyardgrass",[1]; Rate 35 g/ha,0
same,"Plant response rating, Barnyardgrass",[1]; Rate 70 g/ha,5
same,"Plant response rating, Barnyardgrass",[1]; Rate 140 g/ha,10
same,"Plant response rating, Cocklebur",[2],5
same,"Plant response rating, Corn",[3]; Rate 35 g/ha,0
same,"Plant response rating, Corn",[3]; Rate 70 g/ha,0
same,"Plant response rating, Corn",[3]; Rate 140 g/ha,5
same,"Plant response rating, H. beggarticks",[4]; Rate 35 g/ha,50
same,"Plant response rating, H. beggarticks",[4]; Rate 70 g/ha,50
same,"Plant response rating, H. beggarticks",[4]; Rate 140 g/ha,100
same,"Plant response rating, I. morningglory",[5]; Rate 35 g/ha,5
same,"Plant response rating, I. morningglory",[5]; Rate 140 g/ha,40
same,"Plant response rating, Johnsongrass",[6]; Rate 35 g/ha,5
same,"Plant response rating, Johnsongrass",[6]; Rate 70 g/ha,20
same,"Plant response rating, Johnsongrass",[6]; Rate 140 g/ha,80
same,"Plant response rating, Ladysthumb",[7]; Rate 35 g/ha,5
same,"Plant response rating, Ladysthumb",[7]; Rate 70 g/ha,80
same,"Plant response rating, Ladysthumb",[7]; Rate 140 g/ha,80
same,"Plant response rating, Purple nutsedge",[8]; Rate 35 g/ha,0
same,"Plant response rating, Purple nutsedge",[8]; Rate 70 g/ha,0
same,"Plant response rating, Purple nutsedge",[8]; Rate 140 g/ha,0
same,"Plant response rating, Velvetleaf",[9]; Rate 35 g/ha,50
same,"Plant response rating, Velvetleaf",[9]; Rate 140 g/ha,50
same,"Plant response rating, Purple nutsedge","[10]; POSTEMERGENCE, Rate 250 g/ha",0
same,"Plant response rating, Purple nutsedge","[10]; PREEMERGENCE, Rate 32 g/ha",0
same,"Plant response rating, Purple nutsedge","[10]; PREEMERGENCE, Rate 64 g/ha",0
same,"Plant response rating, Purple nutsedge","[10]; PREEMERGENCE, Rate 125 g/ha",0
same,"Plant response rating, Purple nutsedge","[10]; PREEMERGENCE, Rate 250 g/ha",0
same,"Plant response rating, Spanishneedles","[11]; POSTEMERGENCE, Rate 250 g/ha",10
same,"Plant response rating, Spanishneedles","[11]; PREEMERGENCE, Rate 32 g/ha",60
same,"Plant response rating, Spanishneedles","[11]; PREEMERGENCE, Rate 64 g/ha",70
same,"Plant response rating, Alexandergrass","[12]; POSTEMERGENCE, Rate 250 g/ha",80
same,"Plant response rating, Alexandergrass","[12]; PREEMERGENCE, Rate 125 g/ha",85
same,"Plant response rating, Alexandergrass","[12]; PREEMERGENCE, Rate 250 g/ha",98
same,"Plant response rating, Bermudagrass","[13]; POSTEMERGENCE, Rate 250 g/ha",10
same,"Plant response rating, Bermudagrass","[13]; PREEMERGENCE, Rate 32 g/ha",90
same,"Plant response rating, Bermudagrass","[13]; PREEMERGENCE, Rate 64 g/ha",98
same,"Plant response rating, Bermudagrass","[13]; PREEMERGENCE, Rate 125 g/ha",98
same,"Plant response rating, Bermudagrass","[13]; PREEMERGENCE, Rate 250 g/ha",98
same,"Plant response rating, Com. groundsel",[14],40
same,"Plant response rating, Com. ragweed","[15]; POSTEMERGENCE, Rate 250 g/ha",40
same,"Plant response rating, Com. ragweed","[15]; PREEMERGENCE, Rate 32 g/ha",50
same,"Plant response rating, Com. ragweed","[15]; PREEMERGENCE, Rate 64 g/ha",70
same,"Plant response rating, Itchgrass","[16]; POSTEMERGENCE, Rate 250 g/ha",80
same,"Plant response rating, Itchgrass","[16]; PREEMERGENCE, Rate 32 g/ha",30
same,"Plant response rating, Itchgrass","[16]; PREEMERGENCE, Rate 64 g/ha",60
same,"Plant response rating, Itchgrass","[16]; PREEMERGENCE, Rate 125 g/ha",70
same,"Plant response rating, Itchgrass","[16]; PREEMERGENCE, Rate 250 g/ha",70
same,"Plant response rating, Johnsongrass","[17]; POSTEMERGENCE, Rate 250 g/ha",65
same,"Plant response rating, Johnsongrass","[17]; PREEMERGENCE, Rate 32 g/ha",70
same,"Plant response rating, Johnsongrass","[17]; PREEMERGENCE, Rate 64 g/ha",80
same,"Plant response rating, Johnsongrass","[17]; PREEMERGENCE, Rate 125 g/ha",80
same,"Plant response rating, Johnsongrass","[17]; PREEMERGENCE, Rate 250 g/ha",90
same,"Plant response rating, Large crabgrass","[18]; POSTEMERGENCE, Rate 250 g/ha",40
same,"Plant response rating, Large crabgrass","[18]; PREEMERGENCE, Rate 32 g/ha",98
same,"Plant response rating, Large crabgrass","[18]; PREEMERGENCE, Rate 64 g/ha",98
same,"Plant response rating, P. morninglory","[19]; POSTEMERGENCE, Rate 250 g/ha",40
same,"Plant response rating, P. morninglory","[19]; PREEMERGENCE, Rate 125 g/ha",50
same,"Plant response rating, P. morninglory","[19]; PREEMERGENCE, Rate 250 g/ha",80
same,"Plant response rating, Sandbur","[20]; POSTEMERGENCE, Rate 250 g/ha",20
same,"Plant response rating, Sandbur","[20]; PREEMERGENCE, Rate 32 g/ha",85
same,"Plant response rating, Sandbur","[20]; PREEMERGENCE, Rate 64 g/ha",80
same,"Plant response rating, Sandbur","[20]; PREEMERGENCE, Rate 125 g/ha",80
same,"Plant response rating, Sandbur","[20]; PREEMERGENCE, Rate 250 g/ha",98

# Reference: patent US6525001B1, “Substituted pyrimidine and pyridine herbicides” (Mid-American Commercialization Corporation, priority 1997, dated 2003)
